Earlier results on two compounds are cited in US20050158411A1, “Methods and apparatus to prevent, treat, and cure the symptoms of nauea caused by chemotherapy treatments of human cancers” (priority 2000, published 2005).

Structures are written as SMILES. “Also recorded” adds a separate entry of the source.

Series [1] deals with SARS virus growing in tissue cultures.
Series [2] concerns fungal infection of the toenails. To be noted: after six months.

Regarding `NC(=O)c1ncn([C@@H]2O[C@H](CO)[C@@H](O)[C@H]2O)n1` [ribavirin], the “effect against the SARS virus” value in series [1] is reported as “no evidence that the drug has any effect; also recorded: conclusively shown ineffective”.

As to `Clc1ccccc1C(c1ccccc1)(c1ccccc1)n1ccnc1` [clotrimazole], in series [2], the “effectiveness for fungal infection of the toenails” value is reported as “equally effective”.
